Measurements: PubChem BioAssay (NCI)
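Method: 48-hour compound exposure of cells in 96-well plates, five concentrations, linear interpolation of endpoints. GI50: concentration for 50% inhibition of growth. TGI is the concentration that stops growth completely.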

How the values were obtained:
Assay in all cases: DTP human tumour cell line panel, 48 h; in the data active = GI50 below about 0.43 µM; inactive = the rest
OVCAR-3 ovarian = system: OVCAR-3 ovarian
SNB-19 CNS = system: SNB-19 CNS
BT-549 breast = system: BT-549 breast
A498 renal = system: A498 renal
UACC-62 melanoma = system: UACC-62 melanoma
NCI-H226 lung = system: NCI-H226 lung
HCT-15 colon = system: HCT-15 colon
786-0 renal = system: 786-0 renal
SF-539 CNS = system: SF-539 CNS
CAKI-1 renal = system: CAKI-1 renal
SN12C renal = system: SN12C renal
COLO 205 colon = system: COLO 205 colon
SK-MEL-5 melanoma = system: SK-MEL-5 melanoma
HCT-116 colon = system: HCT-116 colon
M14 melanoma = system: M14 melanoma
IGROV1 ovarian = system: IGROV1 ovarian
KM12 colon = system: KM12 colon
NCI/ADR-RES ovarian = system: NCI/ADR-RES ovarian
SK-MEL-28 melanoma = system: SK-MEL-28 melanoma
A549 NSCLC = system: A549 NSCLC
HCC-2998 colon = system: HCC-2998 colon
NCI-H460 lung = system: NCI-H460 lung
UACC-257 melanoma = system: UACC-257 melanoma
ACHN renal = system: ACHN renal
HT29 colon = system: HT29 colon
K-562 leukemia = system: K-562 leukemia
OVCAR-8 ovarian = system: OVCAR-8 ovarian
RPMI-8226 leukemia = system: RPMI-8226 leukemia
OVCAR-5 ovarian = system: OVCAR-5 ovarian
CCRF-CEM leukemia = system: CCRF-CEM leukemia
HS 578T breast = system: HS 578T breast
HL-60(TB) leukemia = system: HL-60(TB) leukemia
SF-295 CNS = system: SF-295 CNS
MDA-MB-231 breast = system: MDA-MB-231 breast
SK-OV-3 ovarian = system: SK-OV-3 ovarian
OVCAR-4 ovarian = system: OVCAR-4 ovarian
LOX IMVI melanoma = system: LOX IMVI melanoma
HOP-92 NSCLC = system: HOP-92 NSCLC
MDA-MB-435 = system: MDA-MB-435
SK-MEL-2 melanoma = system: SK-MEL-2 melanoma
MOLT-4 leukemia = system: MOLT-4 leukemia
EKVX NSCLC = system: EKVX NSCLC
PC-3 prostate = system: PC-3 prostate
U251 CNS = system: U251 CNS
NCI-H23 lung = system: NCI-H23 lung
MCF7 breast = system: MCF7 breast
SW-620 colon = system: SW-620 colon
NCI-H522 lung = system: NCI-H522 lung
T-47D breast = system: T-47D breast
SNB-75 CNS = system: SNB-75 CNS
HOP-62 NSCLC = system: HOP-62 NSCLC
DU-145 prostate = system: DU-145 prostate
SF-268 CNS = system: SF-268 CNS
UO-31 renal = system: UO-31 renal
SR leukemia = system: SR leukemia
RXF 393 renal = system: RXF 393 renal

O=C(Nc1cccc(Cl)c1)c1cccc(NC2=C(Cl)C(=O)N(Cc3ccccc3)C2=O)c1
67.3 µM: TGI (M14 melanoma)
91.3 µM: TGI (MDA-MB-435)
42.8 µM: TGI (HOP-62 NSCLC)
62.4 µM: TGI (HCC-2998 colon)
31.8 µM: TGI (HL-60(TB) leukemia)
35.5 µM: TGI (K-562 leukemia)
49.1 µM: TGI (CAKI-1 renal)
9.81 µM: TGI (IGROV1 ovarian)
94.4 µM: TGI (SF-268 CNS)
93.1 µM: TGI (PC-3 prostate)
10.5 µM: TGI (SR leukemia)
> 100 µM: TGI (OVCAR-3 ovarian) | TGI (SNB-19 CNS) | TGI (BT-549 breast) | TGI (A498 renal) | TGI (UACC-62 melanoma) | TGI (NCI-H226 lung) | TGI (HCT-15 colon) | TGI (786-0 renal) | TGI (SF-539 CNS) | TGI (COLO 205 colon) | TGI (SK-MEL-5 melanoma) | TGI (NCI/ADR-RES ovarian) | TGI (SK-MEL-28 melanoma) | TGI (A549 NSCLC) | TGI (NCI-H460 lung) | TGI (UACC-257 melanoma) | TGI (ACHN renal) | TGI (HT29 colon) | TGI (OVCAR-8 ovarian) | TGI (OVCAR-5 ovarian) | TGI (CCRF-CEM leukemia) | TGI (HS 578T breast) | TGI (SF-295 CNS) | TGI (MDA-MB-231 breast) | TGI (SK-OV-3 ovarian) | TGI (OVCAR-4 ovarian) | TGI (LOX IMVI melanoma) | TGI (HOP-92 NSCLC) | TGI (MOLT-4 leukemia) | TGI (EKVX NSCLC) | TGI (U251 CNS) | TGI (NCI-H23 lung) | TGI (SW-620 colon) | TGI (T-47D breast) | TGI (SNB-75 CNS) | TGI (DU-145 prostate) | TGI (UO-31 renal) | TGI (RXF 393 renal)
56.9 µM: TGI (SN12C renal)
42.4 µM: TGI (HCT-116 colon)
68.6 µM: TGI (SK-MEL-2 melanoma)
80.4 µM: TGI (KM12 colon)
53 µM: TGI (NCI-H522 lung)
inactive: GI50 (OVCAR-3 ovarian) 24.3 µM | GI50 (SNB-19 CNS) > 100 µM | GI50 (BT-549 breast) 36.9 µM | GI50 (A498 renal) > 100 µM | GI50 (UACC-62 melanoma) 21.1 µM | GI50 (NCI-H226 lung) 22.4 µM | GI50 (HCT-15 colon) 30 µM | GI50 (786-0 renal) 35.8 µM | GI50 (SF-539 CNS) 81.8 µM | GI50 (CAKI-1 renal) 15 µM | GI50 (SN12C renal) 2.62 µM | GI50 (COLO 205 colon) > 100 µM | GI50 (SK-MEL-5 melanoma) 34 µM | GI50 (HCT-116 colon) 10.1 µM | GI50 (M14 melanoma) 18.3 µM | GI50 (IGROV1 ovarian) 3.12 µM | GI50 (KM12 colon) 28.2 µM | GI50 (NCI/ADR-RES ovarian) 89.8 µM | GI50 (SK-MEL-28 melanoma) > 100 µM | GI50 (A549 NSCLC) > 100 µM | GI50 (HCC-2998 colon) 19.8 µM | GI50 (NCI-H460 lung) 37 µM | GI50 (UACC-257 melanoma) 72.5 µM | GI50 (ACHN renal) 87.4 µM | GI50 (HT29 colon) 55.7 µM | GI50 (K-562 leukemia) 0.662 µM | GI50 (OVCAR-8 ovarian) 56.4 µM | GI50 (RPMI-8226 leukemia) 7.58 µM | GI50 (OVCAR-5 ovarian) > 100 µM | GI50 (CCRF-CEM leukemia) 7.2 µM | GI50 (HS 578T breast) > 100 µM | GI50 (HL-60(TB) leukemia) 12.6 µM | GI50 (SF-295 CNS) 44.1 µM | GI50 (MDA-MB-231 breast) 4.54 µM | GI50 (SK-OV-3 ovarian) > 100 µM | GI50 (OVCAR-4 ovarian) 68.5 µM | GI50 (LOX IMVI melanoma) 28.3 µM | GI50 (HOP-92 NSCLC) 16.1 µM | GI50 (MDA-MB-435) 25.9 µM | GI50 (SK-MEL-2 melanoma) 26.7 µM | GI50 (MOLT-4 leukemia) 22.2 µM | GI50 (EKVX NSCLC) > 100 µM | GI50 (PC-3 prostate) 21.9 µM | GI50 (U251 CNS) 43.1 µM | GI50 (NCI-H23 lung) > 100 µM | GI50 (MCF7 breast) 25.6 µM | GI50 (SW-620 colon) 58.6 µM | GI50 (NCI-H522 lung) 18.8 µM | GI50 (T-47D breast) > 100 µM | GI50 (SNB-75 CNS) > 100 µM | GI50 (HOP-62 NSCLC) 0.84 µM | GI50 (DU-145 prostate) 46 µM | GI50 (SF-268 CNS) 25.5 µM | GI50 (UO-31 renal) 36.4 µM | GI50 (SR leukemia) 2.32 µM | GI50 (RXF 393 renal) 85 µM
83.7 µM: TGI (MCF7 breast)
53.3 µM: TGI (RPMI-8226 leukemia)
